Data taken from patent US20210231678A1, “ALLERGY ANTIGEN AND EPITOPE THEREOF” (FUJITA ACADEMY, priority 2020, published 2021).

system: IgE antibody present in the serum of a patient (latex-allergic); assay: Latex epitope mapping (2) overlapping 10-residue peptides and (3) alanine/glycine scanning on peptide arrays; format: binding, human; conditions: serum of latex-allergic patient P1
Protocol: On the basis of the sequences (SEQ ID NOs: 5, 25, 35, 68 and 83) of the peptides bound to an IgE antibody in serum in a patient-specific manner as described above in (A), a library of overlapping peptide fragments (length: 10 amino acids) was prepared using the sequences of the peptides and sequences in which sequences were added so as to flank each peptide in the amino acid sequences of allergy components comprising the sequences of the peptide. Epitope mapping was carried out using the library.
The peptides to be synthesized were shifted by one amino acid.
The library was prepared by the same procedure as described above in (A), and the presence or absence of binding of an IgE antibody present in the serum of a patient to each peptide fragment was measured by the same technique as described above. Numeric values determined from images obtained as a result of carrying out only the procedures (1) and (4) to (6) described above in the subsection titled (3) Spotting of cellulose-bound peptide solution were used as control values. The control value of each peptide was subtracted from numeric values determined from images obtained from results about the serum of patients, and the obtained value of the difference was compared with values of the peptides serving as the basis of overlapping.
Chemiluminescence intensity in images obtained by measurement was converted into a numeric value in the same manner as in (A). Numeric values determined from images obtained as a result of carrying out only the procedures (1) and (4) to (6) described above in the subsection titled (3) Spotting of cellulose-bound peptide solution (secondary antibody measurement values) were used as control values. The control value of each peptide was subtracted from numeric values determined from images obtained from results about the serum of patients. When values obtained using the sequences (SEQ ID NOs: 5, 25, 35, 68 and 83) serving as the basis of overlapping were defined as 100%, it was determined that: a peptide having a value of the difference that was less than 30% had no binding activity against IgE antibodies; a peptide having a value of the difference that was 30% or more and less than 50% had binding activity, albeit poor, against IgE antibodies; a peptide having a value of the difference that was 50% or more and less than 70% had binding activity, albeit somewhat poor, against IgE antibodies; and a peptide having a value of the difference that was 70% or more had equivalent or good binding activity against IgE antibodies and was thus a peptide had remaining binding activity against IgE antibodies.
From the amino acid sequences identified above in (A), a library of peptide fragments in which amino-terminal amino acids were substituted one by one by alanine (or glycine when the original amino acid was alanine) according to a technique called alanine/glycine scanning (Non Patent Literature 5) was prepared by the same technique as described above. The presence or absence of binding of an IgE antibody present in the serum of a patient to each peptide fragment was measured by the same technique as described above.
Chemiluminescence intensity in images obtained by measurement was converted into a numeric value in the same manner as in (A). Numeric values determined from images obtained from secondary antibody measurement values were used as control values. The control value of each peptide was subtracted from numeric values determined from images obtained from results about the serum of 17 patients (patient Nos. P1-P17). […]

Substance	epitope sequence grade for binding to IgE antibody
84 (SKFYDDKNG; epitope) [compound 84]	More preferably
88 (DDKNGYSSS; epitope) [compound 88]	More preferably

The remaining lines, values ahead:

epitope sequence grade for binding to IgE antibody	Substance
Key	70 (HKVGKG; epitope) [compound 70]
Further preferably	87 (YDDKNGYSSS; epitope) [compound 87]
Preferably	85 (SKFYDDKN; epitope) [compound 85]
Key	6 (QKPY; epitope) [compound 6]
Preferably	69 (HKVGKGEI; epitope) [compound 69]

same assay, conditions: serum of latex-allergic patient P2

epitope sequence grade for binding to IgE antibody	Substance
Preferably	7 (DNFVIQKPYD; epitope) [compound 7]
Key	26 (DKPLN; epitope) [compound 26]
More preferably	92 (KFYDDKNGYS; epitope) [compound 92]
Further preferably	91 (WSKFYDDK; epitope) [compound 91]
More preferably	95 (DDKNGYSSS; epitope) [compound 95]

same assay, conditions: serum of latex-allergic patient P3

epitope sequence grade for binding to IgE antibody	Substance
Further preferably	37 (SYKSNSVATD; epitope) [compound 37]
Preferably	39 (SYKSNSV; epitope) [compound 39]
More preferably	38 (SYKSNSVA; epitope) [compound 38]
Most preferably	36 (LKSYKSNSVA; epitope) [compound 36]

same assay, conditions: serum of latex-allergic patient P4

epitope sequence grade for binding to IgE antibody	Substance
Key	100 (KFYDDK; epitope) [compound 100]
More preferably	41 (SYKSNSV; epitope) [compound 41]
More preferably	101 (DKNGYSSS; epitope) [compound 101]

same assay, conditions: serum of latex-allergic patient P5

Substance	epitope sequence grade for binding to IgE antibody
104 (WSKFYDDK; epitope) [compound 104]	More preferably
75 (HKVGKGEI; epitope) [compound 75]	More preferably

The remaining lines, values ahead:

epitope sequence grade for binding to IgE antibody	Substance
Preferably	44 (SYKSNS; epitope) [compound 44]
Key	106 (KFYDDK; epitope) [compound 106]
More preferably	71 (VNVIHKVGKG; epitope) [compound 71]
Preferably	105 (SKFYDDK; epitope) [compound 105]

same assay, conditions: serum of latex-allergic patient P6

epitope sequence grade for binding to IgE antibody	Substance
Key	11 (QKPY; epitope) [compound 11]
More preferably	9 (EDNFVIQKPY; epitope) [compound 9]
Key	27 (KPYDKP; epitope) [compound 27]
Key	28 (KPLNDRYS; epitope) [compound 28]

same assay, conditions: serum of latex-allergic patient P7

Substance	epitope sequence grade for binding to IgE antibody
109 (WSKFYDDK; epitope) [compound 109]	Key
13 (QKPY; epitope) [compound 13]	Key

Other lines, results leading:

epitope sequence grade for binding to IgE antibody	Substance
Preferably	12 (QKPYD; epitope) [compound 12]
Key	78 (KVGK; epitope) [compound 78]
Preferably	110 (YDDKNGYSSS; epitope) [compound 110]

same assay, conditions: serum of latex-allergic patient P8

Substance	epitope sequence grade for binding to IgE antibody
48 (KSNSVATDI; epitope) [compound 48]	Further preferably
14 (QKPYDK; epitope) [compound 14]	Preferably

Next, values leading:

epitope sequence grade for binding to IgE antibody	Substance
More preferably	49 (KSNSVATD; epitope) [compound 49]
Key	15 (QKPYD; epitope) [compound 15]
Preferably	46 (LKSYKSNSVA; epitope) [compound 46]

same assay, conditions: serum of latex-allergic patient P9

epitope sequence grade for binding to IgE antibody	Substance
Key	29 (DKPLNDR; epitope) [compound 29]
Further preferably	53 (KSNSVATDIY; epitope) [compound 53]
Key	79 (KVGK; epitope) [compound 79]
Key	52 (LKSYK; epitope) [compound 52]

same assay, conditions: serum of latex-allergic patient P12

Substance	epitope sequence grade for binding to IgE antibody
113 (WSKFYDDKN; epitope) [compound 113]	Preferably
63 (VATDIY; epitope) [compound 63]	More preferably
58 (SYKSNSVATD; epitope) [compound 58]	Still further preferably
18 (QKPYDK; epitope) [compound 18]	Preferably

Next, values leading:

epitope sequence grade for binding to IgE antibody	Substance
More preferably	112 (WSKFYDDKNG; epitope) [compound 112]
Key	114 (KFYDDK; epitope) [compound 114]
Further preferably	59 (SYKSNSVA; epitope) [compound 59]
Most preferably	57 (LKSYKSNSVA; epitope) [compound 57]

same assay, conditions: serum of latex-allergic patient P13

epitope sequence grade for binding to IgE antibody	Substance
Key	66 (SYKSNS; epitope) [compound 66]
Key	30 (KPLN; epitope) [compound 30]
Key	20 (QKPYDK; epitope) [compound 20]

same assay, conditions: serum of latex-allergic patient P15

epitope sequence grade for binding to IgE antibody	Substance
Key	32 (KPLN; epitope) [compound 32]
Preferably	31 (DKPLND; epitope) [compound 31]

same assay, conditions: serum of latex-allergic patient P17

Substance	epitope sequence grade for binding to IgE antibody
33 (KPYDKPLNDR; epitope) [compound 33]	Preferably
23 (QKPYD; epitope) [compound 23]	Preferably
117 (SKFYD; epitope) [compound 117]	Key
34 (DKPLNDRYS; epitope) [compound 34]	Key
22 (QKPYDKPLN; epitope) [compound 22]	More preferably
21 (FVIQKPYD; epitope) [compound 21]	Further preferably
80 (KVGKGEITVF; epitope) [compound 80]	More preferably
24 (QKPY; epitope) [compound 24]	Key

Continued, values first:

epitope sequence grade for binding to IgE antibody	Substance
Preferably	118 (YDDKNGYSSS; epitope) [compound 118]
More preferably	115 (WSKFYDDKN; epitope) [compound 115]
Preferably	116 (WSKFYD; epitope) [compound 116]
Key	67 (KSNSV; epitope) [compound 67]

same assay, conditions: short partial sequences of the 15-residue epitopes

Substance	confirmed as epitope binding to IgE antibodies
KPLN (epitope) [SEQ ID NO: 30]	confirmed as epitopes binding to IgE antibodies
KVGK (epitope) [SEQ ID NO: 78]	confirmed as epitopes binding to IgE antibodies
